Values of other authors, collected in patent US6071508A, “Preparation of formulations for electrotransport drug delivery” (Alza Corporation, priority 1997, dated 2000).
Where a name gives a salt, the structure may show the parent alone.

Conditions: known value

c1ccc2c(c1)CC[C@H](CNCCCNC1=NCCCN1)O2 [drug salt of Example 1, (-)-(R)-N-[(3,4-dihydro-2H-1-benzopyran-2-yl)methyl]-N'-(1,4,5,6-tetrahydropyrimidinyl)-1,3-propanediamine dihydrochloride]
pKa, pyrimidinamine functionality: > 11.0
pKa, secondary amine group: 8.3
